Test results taken from patent publication US20100215618A1, “NOVEL COMPOUNDS - 644” (Arrow Therapeutics Limited, priority 2009, published 2010).
Read-outs that look alike come from different tables or passages of the source.

What was measured:
[1] = test system: HCV replicon cells Huh 9B (genotype 1b); assay: 1b Replicon Assay (luciferase readout); type: cell-based; details: Hepatitis C virus, Huh 9B replicon cells, 72 h, luciferase activity
in vitro = in vitro ADME, Canine; details: dog, MDCK
Protocol: Cells used: MDCK (Madin-Darby Canine Kidney) cells, ATCC collection # CCL-34, are used to model the intestinal barrier. Cell culture conditions: cells were cultured at 37° C. in a 5% CO2 environment and split twice a week on seeding at 4×10^5 cells/flask (75 cm^2) on day 1 and 2×10^5 cells/flask on day 4. The culture medium consisted of MEM+Earle's-L Glutamine (Gibco #21090-022) supplemented with 10% Australian Fetal Calf Serum (Sigma #F6178), 2 mM L-Glutamine (Gibco #25030-024) and 1× Non Essential Amino Acids (Gibco #11140-035)
On day 1, a 24-well plate (Sarstedt, #83.1836.300) was filled with individual 3 lam pore membrane inserts (Millipore, #PITP 012 50). Each plate allows the testing of a cocktail of 3 control compounds and 11 test compounds in duplicate. The wells (outside the inserts) were filled with 500 μl of culture medium.
A flask of cells was trypsinised and a cell count carried out. Cells were diluted to 1.2×10^5 cells/ml (1×10^5 cells/cm^2) and 500 μl dispensed in each insert on the 24-well plate. The plate was incubated at 37° C. in a 5% CO2 environment for 48 hours.
On day 3, the culture medium was removed from the wells, then the inserts and is replaced with fresh culture medium in the wells, then the inserts (500111 per well and insert) The plate was incubated at 37° C. in a 5% CO2 environment for 24 hours.
On day 4, the controls cocktail and test compounds solutions were made up in HBSS buffer (Hank's Balanced Salt Solution, Gibco #14025-050) at 1011M. The final controls and test compounds concentration in the assay was 10 μM, and DMSO concentration maintained at 0.1% (0.3% for the controls cocktail). The controls cocktail was made up of Atenolol (Sigma # A-7655), Dexamethasone (Sigma #D-1756) and Propranolol (Sigma # P-0884).
A 24-well plate was filled with 500 μl of HBSS buffer per well (assay plate) The culture medium was removed from the wells and inserts. The inserts were washed three times with approximately 500 μl of HBSS buffer. The inserts were transferred to the assay plate. Controls cocktail and test compounds solutions were dispensed inside the inserts (500 μl per insert), in duplicates. The assay plate was incubated at 37° C. in a 5% CO2 environment for 2 hours.
After 2 hours, the inserts were removed from the assay plate and transferred into a new 24-well plate (wash plate) The assay plate containing the receiver solutions was left aside for later sampling. To measure the mass balance, 150 μl were sampled from each insert (donor solutions) and dispensed into 150 μl of HPLC-grade Acetonitrile (Fisher Scientific) containing an internal standard and 0.05% formic acid.
The donor solutions were aspirated and discarded from each insert, and the inserts washed once with approximately 500 μl of HBSS buffer. A 24-well plate was filled with 500 μl of HBSS buffer per well (monolayer integrity plate) A Lucifer Yellow (Sigma #L0144) solution was made up at 1001.1M in HBSS buffer. The empty inserts were transferred into the monolayer integrity plate and filled with 500 μl of the Lucifer Yellow solution to determine the cell monolayers integrity and leftover of the solution was kept in a fridge. The plate was incubated at 37° C. in a 5% CO2 environment for 2 hours.
In the meantime, 150 μl were sampled from the assay plate (receiver solutions) and dispensed into 150 μl of HPLC-grade Acetonitrile containing an internal standard and 0.05% formic acid. A calibration curve was made for each mix of compounds (as appropriate depending on compounds molecular weights) A 10 μM mix of compounds in HBSS buffer was diluted 1:1 in HPLC-grade Acetonitrile containing an internal standard and 0.05% formic acid. A 1:1 mix of HBSS buffer and HPLC-grade Acetonitrile containing an internal standard and 0.05% formic acid was made up and used to make up the calibration curve (2 fold dilutions), with concentrations ranging from 10 μM to 0.078 μM. […]

[2] = read-out: pIC50 1b Replicon (converted)

SMILES	IC50 ([1]; read-out: HCV IC50 1b Replicon)	IC50 [1, 2]	Papp at 2 h, 10 µM (in vitro)
COC(=O)N[C@H](C(=O)N1CCOC[C@H]1c1ncc(-c2ccc(-c3ccc(C(=O)Nc4ccc(CN5CCS(=O)(=O)CC5)cc4)cc3)cc2)[nH]1)c1ccccc1 [Example 47, Methyl N-[(1S)-2-[(3R)-3-[5-[4-[4-[[4-[(1,1-dioxo-1,4-thiazinan-4-yl)methyl]phenyl]carbamoyl]phenyl]phenyl]-1H-imidazol-2-yl]morpholin-4-yl]-2-oxo-1-phenyl-ethyl]carbamate]	0.28 nM	0.275 nM	0.1 ×10⁻⁶ cm/s
CCN(CC)[C@@H](C(=O)N1CCC[C@H]1c1ncc(-c2ccc(-c3ccc(C(=O)Nc4ccc(CN5CCS(=O)(=O)CC5)cc4)cc3)cc2)[nH]1)c1ccccc1 [Example 8, 4-[4-[2-[(2S)-1-[(2R)-2-(diethylamino)-2-phenyl-acetyl]pyrrolidin-2-yl]-1H-imidazol-5-yl]phenyl]-N-[4-[(1,1-dioxo-1,4-thiazinan-4-yl)methyl]phenyl]benzamide]	0.05 nM	0.0468 nM	1.2 ×10⁻⁶ cm/s
COC(=O)N[C@@H](CC(C)C)C(=O)N1CCC[C@H]1c1ncc(-c2ccc(-c3ccc(C(=O)Nc4ccc(CN5CCS(=O)(=O)CC5)cc4)cc3)cc2)[nH]1 [Example 14, Methyl N-[(1S)-1-[(2S)-2-[5-[4-[4-[[4-[(1,1-dioxo-1,4-thiazinan-4-yl)methyl]phenyl]carbamoyl]phenyl]phenyl]-1H-imidazol-2-yl]pyrrolidine-1-carbonyl]-3-methyl-butyl]carbamate]	0.36 nM	0.355 nM	1.2 ×10⁻⁶ cm/s
CN(C)[C@@H](C(=O)N1CCC[C@H]1c1ncc(-c2ccc(-c3ccc(C(=O)Nc4ccc(CN5CCS(=O)(=O)CC5)cc4)cc3)cc2)[nH]1)c1ccccc1 [Example 9, 4-[4-[2-[(2S)-1-[(2R)-2-(dimethylamino)-2-phenyl-acetyl]pyrrolidin-2-yl]-1H-imidazol-5-yl]phenyl]-N-[4-[(1,1-dioxo-1,4-thiazinan-4-yl)methyl]phenyl]benzamide]	0.1 nM	0.1 nM	0.9 ×10⁻⁶ cm/s
COC(=O)N[C@@H](C(=O)N1CCC[C@H]1c1ncc(-c2ccc(-c3ccc(C(=O)Nc4ccc(CN5CCS(=O)(=O)CC5)cc4)cc3)cc2)[nH]1)c1ccccc1 [Example 7, Methyl N-[(1R)-2-[(2S)-2-[5-[4-[4-[[4-[(1,1-dioxo-1,4-thiazinan-4-yl)methyl]phenyl]carbamoyl]phenyl]phenyl]-1H-imidazol-2-yl]pyrrolidin-1-yl]-2-oxo-1-phenyl-ethyl]carbamate]	0.05 nM	0.0468 nM	0.4 ×10⁻⁶ cm/s
CC(C)(C)OC(=O)N[C@@H](C(=O)N1CCC[C@H]1c1ncc(-c2ccc(-c3ccc(C(=O)Nc4ccc(CN5CCS(=O)(=O)CC5)cc4)cc3)cc2)[nH]1)c1ccccc1 [Example 2, Tert-butyl N-[(1R)-2-[(2S)-2-[5-[4-[4-[[4-[(1,1-dioxo-1,4-thiazinan-4-yl)methyl]phenyl]carbamoyl]phenyl]phenyl]-1H-imidazol-2-yl]pyrrolidin-1-yl]-2-oxo-1-phenyl-ethyl]carbamate]	0.02 nM	0.0204 nM	0.2 ×10⁻⁶ cm/s
CC[C@H](C)[C@H](NC(=O)OC)C(=O)N1CCC[C@H]1c1ncc(-c2ccc(-c3ccc(C(=O)Nc4ccc(CN5CCS(=O)(=O)CC5)cc4)cc3)cc2)[nH]1 [Example 16, Methyl N-[(1S,2S)-1-[(2S)-2-[5-[4-[4-[[4-[(1,1-dioxo-1,4-thiazinan-4-yl)methyl]phenyl]carbamoyl]phenyl]phenyl]-1H-imidazol-2-yl]pyrrolidine-1-carbonyl]-2-methyl-butyl]carbamate]	0.13 nM	0.132 nM	1 ×10⁻⁶ cm/s
CCCS(=O)(=O)N1CCN(Cc2ccc(NC(=O)c3ccc(-c4ccc(-c5cnc([C@@H]6CCCN6C(=O)[C@@H](NC(=O)OC)C(C)C)[nH]5)cc4)cc3)cc2)CC1 [Example 40, Methyl N-[(1S)-2-methyl-1-[(2S)-2-[5-[4-[4-[[4-[(4-propylsulfonylpiperazin-1-yl)methyl]phenyl]carbamoyl]phenyl]phenyl]-1H-imidazol-2-yl]pyrrolidine-1-carbonyl]propyl]carbamate]	0.1 nM	0.1 nM	0.7 ×10⁻⁶ cm/s
COC(=O)N[C@H](C(=O)N1CCC[C@@H]1c1ncc(-c2ccc(-c3ccc(C(=O)Nc4ccc(CN5CCS(=O)(=O)CC5)cc4)cc3)cc2)[nH]1)C(C)C [Example 20, Methyl N-[(1S)-1-[(2R)-2-[5-[4-[4-[[4-[(1,1-dioxo-1,4-thiazinan-4-yl)methyl]phenyl]carbamoyl]phenyl]phenyl]-1H-imidazol-2-yl]pyrrolidine-1-carbonyl]-2-methyl-propyl]carbamate]	319 nM	316 nM	0.4 ×10⁻⁶ cm/s
COC(=O)N[C@H](C(=O)N1CCC[C@H]1c1ncc(-c2ccc(-c3ccc(C(=O)Nc4ccc(CN5CCS(=O)(=O)CC5)cc4)cc3)cc2)[nH]1)c1ccccc1 [Example 6, Methyl N-[(1S)-2-[(2S)-2-[5-[4-[4-[[4-[(1,1-dioxo-1,4-thiazinan-4-yl)methyl]phenyl]carbamoyl]phenyl]phenyl]-1H-imidazol-2-yl]pyrrolidin-1-yl]-2-oxo-1-phenyl-ethyl]carbamate]	0.04 nM	0.0417 nM	0.1 ×10⁻⁶ cm/s
COC(=O)N[C@H](C(=O)N1CCC[C@H]1c1ncc(-c2ccc(-c3ccc(C(=O)Nc4ccc(CN5CCS(=O)(=O)CC5)cc4)cc3)cc2)[nH]1)C(C)(C)C [Example 5, Methyl N-[(1S)-1-[(2S)-2-[5-[4-[4-[[4-[(1,1-dioxo-1,4-thiazinan-4-yl)methyl]phenyl]carbamoyl]phenyl]phenyl]-1H-imidazol-2-yl]pyrrolidine-1-carbonyl]-2,2-dimethyl-propyl]carbamate]	0.73 nM	0.741 nM	2 ×10⁻⁶ cm/s
COC(=O)N[C@H](C(=O)N1CCC[C@H]1c1ncc(-c2ccc(-c3ccc(C(=O)Nc4ccc(CN5CCS(=O)(=O)CC5)cc4)cc3)cc2)[nH]1)C(C)C [Example 3, Methyl N-[(1S)-1-[(2S)-2-[5-[4-[4-[[4-[(1,1-dioxo-1,4-thiazinan-4-yl)methyl]phenyl]carbamoyl]phenyl]phenyl]-1H-imidazol-2-yl]pyrrolidine-1-carbonyl]-2-methyl-propyl]carbamate]	0.34 nM	0.339 nM	4.1 ×10⁻⁶ cm/s
COC(=O)N[C@H](C(=O)N1CCC[C@H]1c1ncc(-c2ccc(-c3ccc(C(=O)Nc4ccc(CN5CCS(=O)(=O)CC5)cc4)cc3)c(C)c2)[nH]1)C(C)C [Example 54, Methyl N-[(1S)-1-[(2S)-2-[5-[4-[4-[[4-[(1,1-dioxo-1,4-thiazinan-4-yl)methyl]phenyl]carbamoyl]phenyl]-3-methyl-phenyl]-1H-imidazol-2-yl]pyrrolidine-1-carbonyl]-2-methyl-propyl]carbamate]	0.21 nM	0.209 nM	6 ×10⁻⁶ cm/s
